Assay results as given in patent USRE47689E1, “Compounds for treating spinal muscular atrophy” (PTC Therapeutics, Inc., priority 2011, dated 2019).

How the values were obtained:
[1] = tested on: SMN2 minigene (full length SMN2 minigene mRNA containing SMN2 exon 7); assay: SMN2 minigene mRNA splicing RT-qPCR assay in cultured cells; format: cell-based, human; details: Homo sapiens, HEK293-H; HEK293H cells stably transfected with SMN2-A minigene; 24 hours; 7-point concentration curve; 1.5-fold relative to vehicle-treated cells; read-out: EC1.5x for production of full length SMN2 mRNA
In short: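 HEK293H cells stably carrying the SMN2-A minigene treated 24 h at 37° C with compound (DMSO, 200× stock), then lysed. Multiplex RT-qPCR (SMN primers 0.4 μM final; 40 cycles) measures full-length exon 7-containing minigene mRNA, normalized to GAPDH and to vehicle; EC1.5x derived and binned by stars.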

Smn protein = Smn protein assay in cultured cells (SMN HTRF); format: cell-based, human; details: 48 hours; for EC1.5x (concentration giving 1.5-fold Smn protein increase): SMA Type 1 patient fibroblast cells (GM03813), 7-point concentration curve, SMN HTRF, concentration producing 1.5 times Smn protein vs DMSO vehicle control, read-out: EC1.5x for Smn protein expression; for maximum fold (Fold) increase of Smn protein: SMA patient fibroblast cells, 7-point concentration data, fold increase relative to vehicle control (SMN HTRF)
In short: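 Lysates in RIPA with protease inhibitors are incubated overnight at room temperature with HTRF anti-SMN antibodies. EC1.5x is derived from fold increase in ΔF over vehicle.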

| SMILES | EC (1.5-fold) [1] | EC1.5x (concentration giving 1.5-fold Smn protein increase) (Smn protein) | maximum fold (Fold) increase of Smn protein (Smn protein) | melting point |
| --- | --- | --- | --- | --- |
| Cc1cn2cc(-c3cc4ccc(OC5CCN(C)CC5)cc4oc3=O)nc2c(C)n1 [Compound 867, 3-(6,8-dimethylimidazo[1,2-a]pyrazin-2-yl)-7-[(1-methylpiperidin-4-yl)oxy]-2H-chromen-2-one] | < 0.1 µM | < 300 nM | **** (fold increase between >1.5 and ≤1.65) | 165 to 168 °C |
| Cc1cn2cc(-c3cc4ccc(C5CCNCC5)cc4oc3=O)nc2cn1 [Compound 868, 3-(6-methylimidazo[1,2-a]pyrazin-2-yl)-7-(piperidin-4-yl)-2H-chromen-2-one] | < 0.1 µM | < 300 nM | ***** (fold increase >1.65) | 247 to 253 °C |
| Cc1cn2cc(-c3cc4ccc(C5CCN(C6CCC6)CC5)cc4oc3=O)nc2cn1 [Compound 869, 7-(1-cyclobutylpiperidin-4-yl)-3-(6-methylimidazo[1,2-a]pyrazin-2-yl)-2H-chromen-2-one] | < 0.1 µM | < 300 nM | ***** (fold increase >1.65) | 256 to 268 °C |
| Cc1cn2cc(-c3cc4ccc(CCN(C)CCO)cc4oc3=O)nc2c(C)n1 [Compound 871, 3-(6,8-dimethylimidazo[1,2-a]pyrazin-2-yl)-7-{2-[(2-hydroxyethyl)(methyl)amino]ethyl}-2H-chromen-2-one] | < 0.1 µM | < 300 nM | **** (fold increase between >1.5 and ≤1.65) | 168 to 172 °C |
| Cc1cn2cc(-c3cc4ccc(CCNC(C)CO)cc4oc3=O)nc2c(C)n1 (stereo not drawn) [Compound 872, 3-(6,8-dimethylimidazo[1,2-a]pyrazin-2-yl)-7-{2-[(1-hydroxypropan-2-yl)amino]ethyl}-2H-chromen-2-one] | 0.1 to 0.3 µM | 300 to 1000 nM | **** (fold increase between >1.5 and ≤1.65) | 203 to 206 °C |
| Cc1cn2cc(-c3cc4ccc(CCNC(CO)CO)cc4oc3=O)nc2c(C)n1 [Compound 873, 7-{2-[(1,3-dihydroxypropan-2-yl)amino]ethyl}-3-(6,8-dimethylimidazo[1,2-a]pyrazin-2-yl)-2H-chromen-2-one] | < 0.1 µM | 300 to 1000 nM | **** (fold increase between >1.5 and ≤1.65) | 217 to 221 °C |
| Cc1cn2cc(-c3cc4ccc(CCN5CCC[C@@H]5CO)cc4oc3=O)nc2c(C)n1 [Compound 874, 3-(6,8-dimethylimidazo[1,2-a]pyrazin-2-yl)-7-{2-[(2R)-2-(hydroxymethyl)pyrrolidin-1-yl]ethyl}-2H-chromen-2-one] | < 0.1 µM | < 300 nM | ***** (fold increase >1.65) | 166 to 171 °C |
| Cc1cn2cc(-c3cc4ccc(CCN(CCO)CCO)cc4oc3=O)nc2c(C)n1 [Compound 875, 7-{2-[bis(2-hydroxyethyl)amino]ethyl}-3-(6,8-dimethylimidazo[1,2-a]pyrazin-2-yl)-2H-chromen-2-one] | < 0.1 µM | < 300 nM | **** (fold increase between >1.5 and ≤1.65) | 184 to 188 °C |
| Cc1cn2cc(-c3cc4ccc(OCCNC(C)C)cc4oc3=O)nc2c(C)n1 [Compound 877, 3-(6,8-dimethylimidazo[1,2-a]pyrazin-2-yl)-7-[2-(propan-2-ylamino)ethoxy]-2H-chromen-2-one] | < 0.1 µM | 300 to 1000 nM | *** (fold increase between >1.35 and ≤1.5) | 202 to 207 °C |
| Cc1cn2cc(-c3cc4ccc(CCCN(C)CCO)cc4oc3=O)nc2c(C)n1 [Compound 880, 3-(6,8-dimethylimidazo[1,2-a]pyrazin-2-yl)-7-{3-[(2-hydroxyethyl)(methyl)amino]propyl}-2H-chromen-2-one] | < 0.1 µM | < 300 nM | **** (fold increase between >1.5 and ≤1.65) | 173 to 176 °C |
| Cc1cn2cc(-c3cc4ccc(CCCNC(C)CO)cc4oc3=O)nc2c(C)n1 (stereo not drawn) [Compound 881, 3-(6,8-dimethylimidazo[1,2-a]pyrazin-2-yl)-7-{3-[(1-hydroxypropan-2-yl)amino]propyl}-2H-chromen-2-one] | < 0.1 µM | < 300 nM | **** (fold increase between >1.5 and ≤1.65) | 181 to 184 °C |
| Cc1cn2cc(-c3cc4ccc(CCCNC(CO)CO)cc4oc3=O)nc2c(C)n1 [Compound 882, 7-{3-[(1,3-dihydroxypropan-2-yl)amino]propyl}-3-(6,8-dimethylimidazo[1,2-a]pyrazin-2-yl)-2H-chromen-2-one] | < 0.1 µM | < 300 nM | **** (fold increase between >1.5 and ≤1.65) | 195 to 199 °C |
| Cc1cn2cc(-c3cc4ccc(CCCN5CCC[C@@H]5CO)cc4oc3=O)nc2c(C)n1 [Compound 883, 3-(6,8-dimethylimidazo[1,2-a]pyrazin-2-yl)-7-{3-[(2R)-2-(hydroxymethyl)pyrrolidin-1-yl]propyl}-2H-chromen-2-one] | < 0.1 µM | < 300 nM | ***** (fold increase >1.65) | 182 to 185 °C |
| Cc1cn2cc(-c3cc4ccc(CCCN5CCOCC5)cc4oc3=O)nc2c(C)n1 [Compound 884, 3-(6,8-dimethylimidazo[1,2-a]pyrazin-2-yl)-7-[3-(morpholin-4-yl)propyl]-2H-chromen-2-one] | < 0.1 µM | < 300 nM | ***** (fold increase >1.65) | 168 to 172 °C |
| Cc1cn2cc(-c3cc4ccc(CCCN(CCO)CCO)cc4oc3=O)nc2c(C)n1 [Compound 885, 7-{3-[bis(2-hydroxyethyl)amino]propyl}-3-(6,8-dimethylimidazo[1,2-a]pyrazin-2-yl)-2H-chromen-2-one] | 0.1 to 0.3 µM | 300 to 1000 nM | ***** (fold increase >1.65) | 158 to 162 °C |
| Cc1cn2cc(-c3cc4ccc(CCN5CCOCC5)cc4oc3=O)nc2c(C)n1 [Compound 886, 3-(6,8-dimethylimidazo[1,2-a]pyrazin-2-yl)-7-[2-(morpholin-4-yl)ethyl]-2H-chromen-2-one] | 0.3 to 1 µM | 300 to 1000 nM | ***** (fold increase >1.65) | 180 to 184 °C |
| Cc1cn2cc(-c3cc4ccc(O[C@@H]5CCN(C)C5)cc4oc3=O)nc2c(C)n1 [Compound 889, 3-(6,8-dimethylimidazo[1,2-a]pyrazin-2-yl)-7-{[(3R)-1-methylpyrrolidin-3-yl]oxy}-2H-chromen-2-one] | < 0.1 µM | < 300 nM | ***** (fold increase >1.65) | 195 to 202 °C |
| CCN1CC[C@@H](Oc2ccc3cc(-c4cn5cc(C)nc(C)c5n4)c(=O)oc3c2)C1 [Compound 890, 3-(6,8-dimethylimidazo[1,2-a]pyrazin-2-yl)-7-{[(3R)-1-ethylpyrrolidin-3-yl]oxy}-2H-chromen-2-one] | < 0.1 µM | < 300 nM | ***** (fold increase >1.65) | 193 to 195 °C |
| Cc1cn2cc(-c3cc4ccc(O[C@@H]5CCN(C(C)C)C5)cc4oc3=O)nc2c(C)n1 [Compound 891, 3-(6,8-dimethylimidazo[1,2-a]pyrazin-2-yl)-7-{[(3R)-1-(propan-2-yl)pyrrolidin-3-yl]oxy}-2H-chromen-2-one] | 0.1 to 0.3 µM | 300 to 1000 nM | ***** (fold increase >1.65) | 176 to 179 °C |
| Cc1cn2cc(-c3cc4ccc(O[C@@H]5CCN(CCO)C5)cc4oc3=O)nc2c(C)n1 [Compound 892, 3-(6,8-dimethylimidazo[1,2-a]pyrazin-2-yl)-7-{[(3R)-1-(2-hydroxyethyl)pyrrolidin-3-yl]oxy}-2H-chromen-2-one] | < 0.1 µM | < 300 nM | **** (fold increase between >1.5 and ≤1.65) | 190 to 196 °C |
| Cc1cn2cc(-c3cc4ccc(O[C@@H]5CCN(C(C)CO)C5)cc4oc3=O)nc2c(C)n1 (stereo partly drawn) [Compound 893, 3-(6,8-dimethylimidazo[1,2-a]pyrazin-2-yl)-7-{[(3R)-1-(1-hydroxypropan-2-yl)pyrrolidin-3-yl]oxy}-2H-chromen-2-one] | < 0.1 µM | < 300 nM | ***** (fold increase >1.65) | 196 to 202 °C |
